In data set [1] the test system is MCF-7 human breast cancer cell line. Nature of the data set: MTT cytotoxicity assay, MCF-7. As to conditions: for IC50: Homo sapiens; for selectivity index MCF-7: IC50 HDF / IC50 MCF-7. Format: cell-based. How it is done:
(§1) Two different human breast cancer cell lines (MCF-7 and MDA-MB-231), lung cancer cell line (A-549) and normal cell (Human Dermal Fibroblast) were purchased from Pasture Institute of Iran, Tehran, Iran. The medium of RPMI 1640 (PAA, Germany) including sodium bicarbonate and N-hydroxyethylpiperazone-n-2-ethanesulfonic Acid (HEPES, Biosera, England) was used to maintain the cell lines. The medium was enriched with fetal bovine serum (FBS; Gibco, USA) and antibiotics. Then, incubated in air atmosphere enriched 5% CO2 at 37 °C. The cytotoxic activity of all fractions and compounds were examined by the MTT (3-[4,5-dimethylthiazole-2-yl]-2,5-diphenyltetrazolium bromide) (Sigma-Aldrich, USA) assay.
(§2) Cancer is the second leading cause of death and responsible for approximately 13% of mortality in the world. […] One of the efficient approaches to new drugs is screening herbal extracts. In the present study, S. macrosiphon was selected for the possible cytotoxic activity. For this purpose, different fractions of aerial parts of the plants including n-hexane, chloroform, ethyl acetate, and water-soluble fractions were screened towards lung cancer cell line (A549) and breast cancer cell lines (MCF-7 and MDA-MB-231) as well as normal cell, human dermal fibroblasts (HDF), using MTT assay comparing with etoposide as a standard drug (Table 2). The inhibitory concentration, 50% (IC50) values (µg /mL) were calculated by linear regression analysis, expressed in mean ± SD.
In general terms: Tetrazolium assays rely on reduction of a dye to a coloured formazan, in cell work by metabolically active cells.

Data set [2] deals with MDA-MB-231 human breast cancer cell line. Briefly: MTT cytotoxicity assay, MDA-MB-231. It is filed as cell-based. The following applies: for IC50: Homo sapiens; for selectivity index MDA-MB-231: IC50 HDF / IC50 MDA-MB-231. How it is done: as §1, §2
The subject of data set [3] is A549 lung cancer cell line. Briefly: MTT cytotoxicity assay, A549. Format: cell-based, human. As to conditions: for IC50: Homo sapiens; for selectivity index A549: IC50 HDF / IC50 A549. How it is done: as §1, §2
In data set [4] the test system is Human Dermal Fibroblast (HDF). Briefly: MTT cytotoxicity assay, normal cells. Format: cell-based. As to conditions: read-out: IC50 HDF. The method, then: as §1, §2
Details of data set [5]: method as in earlier work. As to conditions: earlier report; cited from earlier work.
The mark [6] stands for this setting: MDA-MB-231, read-out: IC50 MDA-MB-231.
Setting [7] is: MCF7, MTT assay, isolated compounds, read-out: IC50 MCF-7.
The mark [8] stands for this setting: MDA-MB-231, MTT assay, isolated compounds, read-out: IC50 MDA-MB-231.
Setting [9] is: A549, MTT assay, isolated compounds, read-out: IC50 A549.
Where [10] appears, read: MTT assay, normal cells, isolated compounds.

The structures appear in SMILES notation. Read-outs that look alike come from different tables or passages of the source.

On to `C=C[C@]1(C)CCC2[C@@]3(C)CCCC(C)(C)C3CC[C@@]2(C)O1` (stereo partly drawn) [Compound 1, 13-epi manoyl oxide], for which the IC50 – broadly, the midpoint of a concentration-inhibition curve – in data set [1] (MCF7, read-out: IC50 MCF-7) worked out at 15.8 ± 0.35 µM; in data set [2] (setting [6]), 22.2 ± 1.72 µM; in data set [3] (A549, read-out: IC50 A549) it was 19.4 ± 1.96 µM; in data set [4], 338 ± 9.2 µM. Also, the “selectivity index MCF-7” value in data set [1] came out at 21.4. Moreover, the “selectivity index MDA-MB-231” value in data set [2] came out at 15.2. Moreover, the “selectivity index A549” value in data set [3] stood at 17.4.

In the case of `C=C[C@]1(C)CCC2[C@@]3(C)CCCC(C)(C)C3[C@@H](O)C[C@@]2(C)O1` (stereo partly drawn) [Compound 2, 6α-hydroxy-13-epimanoyl oxide], the melting point (in general, the temperature, or range, at which the solid turns liquid) was 95 to 98 °C. In addition, the half-inhibitory concentration (IC50) in data set [1] (setting [7]) was 98 ± 11.3 µM. The IC50 in data set [2] (setting [8]) is 120 ± 5.09 µM. The half-maximal inhibitory concentration (IC50) in data set [3] (setting [9]) worked out at 170 ± 11.6 µM. In addition, the 50% inhibitory concentration (IC50) in data set [4] (setting [10]) was above 653 µM.

For `COc1ccc(-c2cc(=O)c3c(O)cc(OC)cc3o2)cc1` [Compound 3, 5-hydroxy-7,4'-dimethoxyflavone], the IC50 in data set [1] (setting [7]) was 428 ± 23.1 µM; in data set [2] (setting [8]) it was 470 ± 23.1 µM; in data set [3] (setting [9]) it was 469 ± 22.8 µM; in data set [4] (setting [10]), above 971 µM.

`CC[C@H](CC[C@@H](C)[C@H]1CC[C@H]2[C@@H]3CC=C4C[C@@H](O)CC[C@]4(C)[C@H]3CC[C@]12C)C(C)C` [Compound 4, β-sitosterol]: the IC50 was above 100 µM in data set [1] (MCF7, read-out: IC50 MCF-7); above 100 µM in data set [2] (setting [6]); above 100 µM in data set [3] (A549, read-out: IC50 A549). Moreover, the cytotoxicity result in data set [5] is “no activity”.

Take `COc1cc([C@@H]2c3cc4c(cc3[C@@H](O[C@@H]3O[C@@H]5CO[C@@H](C)O[C@H]5[C@H](O)[C@H]3O)[C@H]3COC(=O)[C@H]23)OCO4)cc(OC)c1O` [Etoposide, reference compound]: the 50% inhibitory concentration (IC50) in data set [1] (setting [7]) was 37.5 ± 0.66 µM; in data set [1] (MCF7, MTT assay, mean ± SD, fractions of S. macrosiphon, read-out: IC50 MCF-7), 22.1 ± 0.39 µg/mL; in data set [2] (setting [8]), 34.5 ± 0.36 µM; in data set [2] (MDA-MB-231, MTT assay, mean ± SD, fractions of S. macrosiphon, read-out: IC50 MDA-MB-231) it was 20.3 ± 0.21 µg/mL; in data set [3] (setting [9]), 28.2 ± 1.32 µM; in data set [3] (A549, MTT assay, mean ± SD, fractions of S. macrosiphon, read-out: IC50 A549) it was 16.6 ± 0.78 µg/mL. Moreover, the IC50 in data set [4] (setting [10]) came out at 158 ± 2.04 µM; in data set [4] (MTT assay, normal cells, mean ± SD, fractions of S. macrosiphon), 92.7 ± 1.2 µg/mL. Besides, in data set [1], the “selectivity index MCF-7” value amounted to 4.2. For the same compound, in data set [2], the “selectivity index MDA-MB-231” value worked out at 4.6. In data set [3], the “selectivity index A549” value amounted to 5.6.

The values above are taken from publication PMC7814726, “Phytochemical constituents and biological activities of Salvia macrosiphon Boiss” (BMC Chemistry, 2021).
